Experimental findings from article PMC7271538 (Frontiers in Microbiology, 2020) are described below.

Each structure is given as a SMILES string. Structures can show the parent of a compound that is named as a salt. Where two headings read alike, the source gives them in different places.

The assay concerns the target T1, prolyl oligopeptidase (rPOPLi) (Leishmania infantum, UniProt A4ICB5).
T1 construct: gene LINJ_36_7060; full-length, recombinant from E. coli (pET-15b)
Nature of the assay: fluorogenic assay, single concentration […]. The assay is classed as biochemical.

T1 sequence (A4ICB5 entry or part of it): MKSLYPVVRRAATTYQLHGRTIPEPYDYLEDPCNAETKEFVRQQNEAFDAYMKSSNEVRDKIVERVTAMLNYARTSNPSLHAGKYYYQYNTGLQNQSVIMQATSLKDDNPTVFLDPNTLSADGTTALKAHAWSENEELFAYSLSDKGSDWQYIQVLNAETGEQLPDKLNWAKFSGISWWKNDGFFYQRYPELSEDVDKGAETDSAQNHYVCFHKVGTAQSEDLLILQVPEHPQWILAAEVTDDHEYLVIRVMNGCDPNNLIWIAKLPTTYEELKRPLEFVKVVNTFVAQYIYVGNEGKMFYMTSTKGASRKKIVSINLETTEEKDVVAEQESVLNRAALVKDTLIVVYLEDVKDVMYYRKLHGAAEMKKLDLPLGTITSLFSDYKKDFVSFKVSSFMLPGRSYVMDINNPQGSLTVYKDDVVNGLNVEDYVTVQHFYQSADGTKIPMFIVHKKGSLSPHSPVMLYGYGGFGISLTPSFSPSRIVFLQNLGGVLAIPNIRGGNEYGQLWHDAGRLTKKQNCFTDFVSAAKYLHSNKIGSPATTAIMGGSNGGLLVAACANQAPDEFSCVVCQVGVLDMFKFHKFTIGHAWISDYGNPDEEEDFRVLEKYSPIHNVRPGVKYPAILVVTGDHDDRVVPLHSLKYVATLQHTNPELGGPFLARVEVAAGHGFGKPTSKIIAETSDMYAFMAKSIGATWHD

As usually defined, the inhibition is the change of the read-out against control, counted positive when it falls. Take `Cc1ccc(S(=O)(=O)N[C@@H](CCCCN)C(=O)CCl)cc1` [TLCK, N-α-Tosyl-L-lysine chloromethyl ketone hydrochloride]: the inhibition at 100 µM came out at 96.8%.

As to `Cc1ccc(S(=O)(=O)N[C@@H](Cc2ccccc2)C(=O)CCl)cc1` [TPCK, N-p-Tosyl-L-phenylalanine chloromethyl ketone], the inhibition at 100 µM (read-out: Inhibition (%)) was 92.3%.
